Entries after “also recorded” stand apart in the source; their conditions may differ.
Tested on: HIV-1BAL strain in M type macrophage (M-MΦ) derived from human monocytes
Test: Proliferation of HIV-1 in M-MΦ: p24 protein in culture supernatant by sandwich ELISA
Type: cell-based
Settings: HIV-1BAL; for viral production in M-MΦ at 30 μM: incubated for 10 days (FIGS. 21-25); for production of p24 protein in M-MΦ at various concentrations: incubated for 10 days, compared with DMSO (FIGS. 21-25); for p24 protein / viral proliferation in M-MΦ with kinase inhibitor: 10 μM, up to day 14, compared with control group (FIG. 20)
Experimental: Macrophages derived from monocytes were prepared by culturing the recovered monocytes in the presence of M-CSF (macrophage colony-stimulating factor) (10^4 U/ml, provided by Morinaga Milk Co.), granulocytes and granulocyte-macrophage colony-stimulating factor, GM-CSF) (500 U/ml, provided by Japan Scheling Plough Co., Osaka, or purchased from R & S Genzyme-TECHNE Inc.) with RPMI1640 medium added with FCS10% (Nissui Seiyaku Co., Tokyo) for 7–8 days.
The macrophage prepared by differential induction of M-CSF from human monocytes is designated as M type macrophage (M type MΦ or M-MΦ) and the macrophage prepared by differential induction of GM-CSF from human monocytes is designated as GM type macrophage (GM type MΦ or GM-MΦ) Further, alveolar macrophage (alveolar MΦ or A-MΦ) was prepared as follows. Cells in the alveolar lavage liquid obtained from the alveolar lavage of healthy volunteers were recovered, suspended and adhered to plastics, then the non-adhered cells were washed out and the remained adhered cells were designated as the alveolar MΦ.
Infection of HIV-1 to macrophage was performed as follows. Macrophage directed viral strains, HIV-1JR-FL and HIV-1BAL, were infected for 2 hours in contact with M-MΦ, GM-MΦ and A-MΦ (adjusted to 2.5×10^5/well, Flacon No3043: Becton Dickinson Labware, Inc. U.S.)at low concentration (p24 antigen titer 50 ng/ml, TCID50=3000/ml virus to final concentration at 100 pg/ml), and non-adsorbed virus to the macrophage was washed out, and cultured with adding fresh medium. In case of the medium with M-MΦ, M-CSF was added (10^4 U/ml), and that of the medium with GM-MΦ, GM-CSF was added (500 U/ml).
Proliferation of virus was examined with the released viral particles in the culture supernatant after the infection by the sandwich ELISA using two types of anti-p24 antibody (Nu24 and 10B5^13). The following JAM62 and JAM65 were used as LTR (HIV long terminal repeat)-gap gene primer. The following JAM63 and JAM 64 were used as the internal primer for the nested PCR. • JAM62: • 5′-[…]-3′ (SEQ ID NO: 1) • JAM65: • 5′-[…]-3′ (SEQ ID NO: 2) • JAM63: • 5′-GTGTOACTCTGGTAACTAGAGATCC-3′ (SEQ ID NO: 3) • JAM64: • 5′-[…]-3′ (SEQ ID NO: 4) (1-4) Assay of Expression of Tyrosine Kinase Hck Protein and Transcription Factor C/EBPβ Protein
In order to show growth suppression effect of the present invention, among macrolide derivatives, EM, EM201, EM202, EM703, CAM, EM722, EM730, EM732, EM736, EM734, EM735, EM747, EM748, EM743, EM746, EM750 or EM751 was dissolved in DMSO with each 100 mM concentration, and used in dilution with the medium thereafter. A control group was M-MΦ treated only with DMSO used for dissolving macrolide derivatives.
M-MΦ and GM-M Φ were subjected to contact infection with HIV-1BAL strain for 2 hours, added 30 μM of EM, EM201, EM202, EM703, CAM,EM722, EM730, EM732, EM736, EM734, EM735, EM747, EM748, EM743, EM746, EM750 or EM751, incubated for 14 days and amount of p24 protein in the cultured supernatant was assayed in the time-dependent manner.

Compound | viral production in M-MΦ at 30 μM | production of p24 protein in M-MΦ at various concentrations | p24 protein / viral proliferation in M-MΦ with kinase inhibitor
CCCNC1CC(C)OC(OC2C(C)C(OC3CC(C)(OC)C(O)C(C)O3)C(C)C(=O)OC(C(C)(O)C(O)CC)C(C)C3=C(C)CC2(C)O3)C1O (stereo not shown) [EM730, bis-de(3′-N-methyl)-3′-N-propyl-8,9-anhydro-pseudo-erythromycin A 6,9-hemiketal] | inhibit almost completely viral production; also recorded: almost complete inhibition | suppressed depending on the concentration of agent | 
CC[C@@H](O)[C@@](C)(O)[C@@H]1OC(=O)[C@H](C)[C@@H](O[C@H]2C[C@@](C)(OC)[C@@H](O)[C@H](C)O2)[C@H](C)[C@@H](O[C@@H]2O[C@H](C)C[C@H](N3CCCCC3)[C@H]2O)[C@@]2(C)CC(C)=C(O2)[C@@H]1C [EM734, de(3′-dimethylamino)-3′-piperidino-8,9-anhydro-pseudoerythromycin A 6,9-hemiketal] | inhibit almost completely viral production; also recorded: almost complete inhibition | suppressed depending on the concentration of agent | 
CC[C@@H](O)[C@@](C)(O)[C@@H]1OC(=O)[C@H](C)[C@@H](O[C@H]2C[C@@](C)(OC)[C@@H](O)[C@H](C)O2)[C@H](C)[C@@H](O[C@@H]2O[C@H](C)C[C@H](N3CCCC3)[C@H]2O)[C@@]2(C)CC(C)=C(O2)[C@@H]1C [EM735, de(3′-dimethylamino)-3′-pyrrolidino-8,9-anhydro-pseudoerythromycin A 6,9-hemiketal] | inhibit almost completely viral production; also recorded: almost complete inhibition | suppressed depending on the concentration of agent | 
CC[C@@H](O)[C@@](C)(O)[C@@H]1OC(=O)[C@H](C)[C@@H](O[C@H]2C[C@@](C)(OC)[C@@H](O)[C@H](C)O2)[C@H](C)[C@@H](O[C@@H]2O[C@H](C)C[C@H](NC(C)C)[C@H]2O)[C@@]2(C)CC(C)=C(O2)[C@@H]1C [EM736, bis-de(3′-N-methyl)-3′-N-(2-propyl)-8,9-anhydro-pseudoerythromycin A 6,9-hemiketal] | inhibit almost completely viral production; also recorded: almost complete inhibition | suppressed depending on the concentration of agent | 
COC1(C)CC(OC2C(C)C(=O)OC(C(C)=NO)C(C)C3=C(C)CC(C)(O3)C(OC3OC(C)CC(N(C)C)C3O)C2C)OC(C)C1O (stereo not shown) [EM743, de(12-hydroxy)-de[12-(1-hydroxypropyl)]-12-hydroxy-oxime-8,9-anhydro-pseudoerythromycin A 6,9-hemiketal] | inhibit almost completely viral production; also recorded: almost complete inhibition | suppressed depending on the concentration of agent | 
CC[C@@H](O)[C@@](C)(O)[C@@H]1OC(=O)[C@H](C)[C@@H](O[C@H]2C[C@@](C)(OC)[C@@H](O)[C@H](C)O2)[C@H](C)[C@@H](O[C@@H]2O[C@H](C)C[C@H](N3CCOCC3)[C@H]2O)[C@@]2(C)CC(C)=C(O2)[C@@H]1C [EM747, de(3′-dimethylamino)-3′-morpholino-8,9-anhydro-pseudoerythromycin A 6,9-hemiketal] | inhibit almost completely viral production; also recorded: almost complete inhibition | suppressed depending on the concentration of agent | 
COC1(C)CC(OC2C(C)C(=O)OC(C(C)N)C(C)C3=C(C)CC(C)(O3)C(OC3OC(C)CC(N(C)C)C3O)C2C)OC(C)C1O (stereo not shown) [EM750, de(12-hydroxy)-de[12-(1-hydroxypropyl)]-12-amino-8,9-anhydro-pseudoerythromycin A 6,9-hemiketal] | inhibit almost completely viral production; also recorded: almost complete inhibition | suppressed depending on the concentration of agent | 
CN[C@H]1C[C@@H](C)O[C@@H](O[C@@H]2[C@@H](C)[C@H](O[C@H]3C[C@@](C)(OC)[C@@H](O)[C@H](C)O3)[C@@H](C)C(=O)O[C@@H](C(C)O)[C@@H](C)C3=C(C)C[C@@]2(C)O3)[C@@H]1O (stereo partly shown) [EM751, de(3′-N-methyl)-de[12-(1-hydroxypropyl)]-8,9-anhydro-pseudoerythromycin A 6,9-hemiketal] | inhibit almost completely viral production; also recorded: almost complete inhibition | suppressed depending on the concentration of agent | 
CCC(O)C(C)(O)C1OC(=O)C(C)C(O)C(C)C(OC2OC(C)CC(NC)C2O)C2(C)CC(C)=C(O2)C1C (stereo not shown) [EM754, de(3-O-cladinosyl)-de(3′-N-methyl)-8,9-anhydro-pseudoerythromycin A 6,9-hemiketal] | inhibit almost completely viral production; also recorded: almost complete inhibition | suppressed depending on the concentration of agent | 
COc1cccc(-c2cc(=O)c3ccccc3o2)c1N [PD98059, 2-[2-amino-3-methoxyphenyl]-4H-1-benzopyran-4-one, reference compound] |  |  | amount of p24 protein was not different in the control group
C[S+]([O-])c1ccc(-c2nc(-c3ccc(F)cc3)c(-c3ccncc3)[nH]2)cc1 (stereo not shown) [SB203580, 4-[4-fluoro-phenyl]-2-[4-methylsulfinylphenyl]-5-[4-pyridyl]-1H-imidazole, reference compound] |  |  | no p24 protein was almost detected even on day 14
bis-de(3′-N-methyl)-3′-N-benzyl-8,9-anhydro-pseudo-erythromycin A 6,9-hemiketal [EM732] | inhibit almost completely viral production; also recorded: almost complete inhibition | suppressed depending on the concentration of agent | 
bis-de(3′-N-methyl)-3′-N-ethyl-8,9-anhydro-pseudo-erythromycin A 6,9-hemiketal [EM722] | inhibit almost completely viral production; also recorded: almost complete inhibition | suppressed depending on the concentration of agent | 
de(3′-dimethylamino)-3′-[hexahydro-1(1H)-azepinyl]-8,9-anhydro-pseudoerythromycin A 6,9-hemiketal [EM748] | inhibit almost completely viral production; also recorded: almost complete inhibition | suppressed depending on the concentration of agent | 
de[12-(1-hydroxypropyl)]-8,9-anhydro-pseudo-erythromycin A 6,9-hemiketal [EM746] | inhibit almost completely viral production; also recorded: almost complete inhibition | suppressed depending on the concentration of agent | 

Reference: US7034005B2, “Use of agent for suppressing infection and proliferation of human immunodeficiency syndrome virus” (The Kitasato Institute, priority 2002, dated 2006)
